Source: patent publication US20060223996A1, “IL-12 modulatory compounds” (Synta Pharmaceuticals Corp., priority 2004, published 2006)

Tested on: IL-12
Assay: Human in vitro assay: inhibition of IL-12 production in IFNγ/LPS- or IFNγ/SAC-stimulated human PBMC or THP-1 cells (ELISA)
Assay type: cell-based
Settings: read-out: IC50 Range (representative in vitro IC50 data)
Procedure, shortened: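 Sandwich ELISA for IL-12 (p70, p40) on supernatants collected 18 h after stimulation gave IC50 values; MTS monitored viability. THP-1 cells: IFNγ 100 U/mL priming 22 h, SAC 0.025%. PBMC: IFNγ 30 U/mL for 22 h plus LPS 1 μg/mL, or IFNγ 100 U/mL plus SAC 0.01%. Final DMSO 0.25%.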

SMILES	IC50 [nM]
Cc1[nH]c2ccc(NC(=O)c3cc(OCCN4CCOC4=O)nc(N4CCOCC4)n3)cc2c1C [Compound 21, 2-Morpholin-4-yl-6-[2-(2-oxo-oxazolidin-3-yl)-ethoxy]-pyrimidine-4-carboxylic acid (2,3-dimethyl-1H-indol-5-yl)-amide]	< 1000
CC1CCc2ccc(NC(=O)c3cc(OCCN4CCOCC4)nc(N4CCOCC4)n3)cc2N1C (centres unmarked) [Compound 321, 2-Morpholin-4-yl-6-(2-morpholin-4-yl-ethoxy)-pyrimidine-4-carboxylic acid (1,2-dimethyl-1,2,3,4-tetrahydro-quinolin-7-yl)-amide]	≥ 1000
Cc1[nH]c2ccc(NC(=O)c3cc(OCCN4CCCCC4)nc(N4CCOCC4)n3)cc2c1C [Compound 42, 2-Morpholin-4-yl-6-(2-piperidin-1-yl-ethoxy)-pyrimidine-4-carboxylic acid (2,3-dimethyl-1H-indol-5-yl)-amide]	≥ 1000
Cc1[nH]c2ccc(NC(=O)Nc3cc(N4CCN(c5ccccn5)CC4)nc(N4CCOCC4)n3)cc2c1C [Compound 268, 1-(2,3-dimethyl-1H-indol-5-yl)-3-(2-morpholino-6-(4-(pyridin-2-yl)piperazin-1-yl)pyrimidin-4-yl)urea]	< 1000
Cc1ccc(NNC(=O)c2cc(N3CCOCC3)nc(OCCN3CCOCC3)n2)cc1C [Compound 81, 6-Morpholin-4-yl-2-(2-morpholin-4-yl-ethoxy)-pyrimidine-4-carboxylic acid N′-(3,4-dimethyl-phenyl)-hydrazide]	< 1000
Cc1[nH]c2ccc(NC(=O)c3cc(NCCO)nc(N4CCOCC4)n3)cc2c1C [Compound 194, N-(2,3-dimethyl-1H-indol-5-yl)-6-(2-hydroxyethylamino)-2-morpholinopyrimidine-4-carboxamide]	< 1000
COCCN(C)c1cc(C(=O)Nc2ccc3c(C(F)(F)F)cc(C(F)(F)F)nc3n2)nc(N2CCOCC2)n1 [Compound 243, 6-[(2-Methoxy-ethyl)-methyl-amino]-2-morpholin-4-yl-pyrimidine-4-carboxylic acid (5,7-bis-trifluoromethyl-[1,8]naphthyridin-2-yl)-amide]	≥ 1000
CCc1c(C)[nH]c2ccc(NC(=O)Nc3cc(N4CCN(c5ccccn5)CC4)nc(N4CCOCC4)n3)cc12 [Compound 269, 1-(3-ethyl-2-methyl-1H-indol-5-yl)-3-(2-morpholino-6-(4-(pyridin-2-yl)piperazin-1-yl)pyrimidin-4-yl)urea]	< 1000
COCCN(C)c1cc(C(=O)Nc2ccc3nc(C)ccc3c2)nc(N2CCOCC2)n1 [Compound 202, 6-((2-methoxyethyl)(methyl)amino)-N-(2-methylquinolin-6-yl)-2-morpholinopyrimidine-4-carboxamide]	≥ 1000
Cc1[nH]c2ccc(NC(=O)c3cc(N4CCN(C)CC4)nc(N4CCOCC4)n3)cc2c1C [Compound 251, N-(2,3-dimethyl-1H-indol-5-yl)-6-(4-methylpiperazin-1-yl)-2-morpholinopyrimidine-4-carboxamide]	< 1000
CC(C)c1cccc(NC(=O)c2cc(OCCN3CCOCC3)nc(N3CCOCC3)n2)c1 [Compound 213, N-(3-isopropylphenyl)-2-morpholino-6-(2-morpholinoethoxy)pyrimidine-4-carboxamide]	≥ 1000
O=C(Nc1ccc2c(c1)CCC2)Nc1cc(N2CCOCC2)nc(OCCN2CCOCC2)n1 [Compound 120, 1-Indan-5-yl-3-[6-morpholin-4-yl-2-(2-morpholin-4-yl-ethoxy)-pyrimidin-4-yl]-urea]	≥ 1000
CCN1CCc2ccc(NC(=O)c3cc(OCCN4CCOCC4)nc(N4CCOCC4)n3)cc21 [Compound 221, N-(1-ethylindolin-6-yl)-2-morpholino-6-(2-morpholinoethoxy)pyrimidine-4-carboxamide]	< 1000
O=C(Nc1cccc(N2CCOCC2)c1)c1cc(OCCN2CCOCC2)nc(N2CCOCC2)n1 [Compound 295, 2-Morpholin-4-yl-6-(2-morpholin-4-yl-ethoxy)-pyrimidine-4-carboxylic acid (3-morpholin-4-yl-phenyl)-amide]	< 1000
Cc1cc(C(=O)Nc2ccc3c(c2)c(C)c(C)n3O)nc(N2CCOCC2)n1 [Compound 319, 6-Methyl-2-morpholin-4-yl-pyrimidine-4-carboxylic acid (1-hydroxy-2,3-dimethyl-1H-indol-5-yl)-amide]	< 1000
CC(=O)Nc1ccccc1NC(=O)c1cc(OCCN2CCOCC2)nc(N2CCOCC2)n1 [Compound 49, 2-Morpholin-4-yl-6-(2-morpholin-4-yl-ethoxy)-pyrimidine-4-carboxylic acid (2-acetylamino-phenyl)-amide]	≥ 1000
Cc1ccc(NC(=O)c2cc(OCCN3CCOCC3)nc(N3CCOCC3)n2)cc1C [Compound 23, 2-Morpholin-4-yl-6-(2-morpholin-4-yl-ethoxy)-pyrimidine-4-carboxylic acid (3,4-dimethyl-phenyl)-amide]	< 1000
COCCN(C)c1cc(C(=O)Nc2ccc(NC(C)=O)cc2)nc(N2CCOCC2)n1 [Compound 165, 6-[(2-Methoxy-ethyl)-methyl-amino]-2-morpholin-4-yl-pyrimidine-4-carboxylic acid (4-acetylamino-phenyl)-amide]	≥ 1000
O=C(Nc1cc(OCCN2CCOCC2)nc(N2CCOCC2)n1)Nc1cc(-c2ccco2)n[nH]1 [Compound 144, 1-(5-Furan-2-yl-2H-pyrazol-3-yl)-3-[2-morpholin-4-yl-6-(2-morpholin-4-yl-ethoxy)-pyrimidin-4-yl]-urea]	≥ 1000
CC(C)N(C)c1cccc(NC(=O)c2cc(OCCN3CCOCC3)nc(N3CCOCC3)n2)c1 [Compound 308, 2-Morpholin-4-yl-6-(2-morpholin-4-yl-ethoxy)-pyrimidine-4-carboxylic acid [3-(isopropyl-methyl-amino)-phenyl]-amide]	≥ 1000
Cc1cc(C(=O)Nc2nc(OCCc3ccccn3)cc(N3CCOCC3)n2)no1 [Compound 77, 5-Methyl-isoxazole-3-carboxylic acid-[4-morpholin-4-yl-6-(2-pyridin-2-yl-ethoxy)-pyrimidin-2-yl]-amide]	≥ 1000
CC(C)c1cccc(NC(=O)Nc2cc(OCCN3CCOCC3)nc(N3CCOCC3)n2)c1 [Compound 330, 1-(3-Isopropyl-phenyl)-3-[2-morpholin-4-yl-6-(2-morpholin-4-yl-ethoxy)-pyrimidin-4-yl]-urea]	< 1000
Cc1ccc(-c2csc(NC(=O)Nc3cc(OCCN4CCOCC4)nc(N4CCOCC4)n3)n2)cc1 [Compound 142, 1-[2-Morpholin-4-yl-6-(2-morpholin-4-yl-ethoxy)-pyrimidin-4-yl]-3-(4-p-tolyl-thiazol-2-yl)-urea]	≥ 1000
Cc1[nH]c2ccc(NC(=O)c3cc(NCC(=O)N4CCC(C(N)=O)CC4)nc(N4CCOCC4)n3)cc2c1C [Compound 99, 6-[2-(4-Carbamoyl-piperidin-1-yl)-2-oxo-ethylamino]-2-morpholin-4-yl-pyrimidine-4-carboxylic acid (2,3-dimethyl-1H-indol-5-yl)-amide]	< 1000
Nc1cccc(NC(=O)c2cc(OCCN3CCOCC3)nc(N3CCOCC3)n2)c1 [Compound 277, 2-Morpholin-4-yl-6-(2-morpholin-4-yl-ethoxy)-pyrimidine-4-carboxylic acid (3-amino-phenyl)-amide]	< 1000
CONc1cc(C(=O)Nc2cccc(N(C)C)c2)nc(N2CCOCC2)n1 [Compound 196, N-(3-(dimethylamino)phenyl)-6-(methoxyamino)-2-morpholinopyrimidine-4-carboxamide]	< 1000
